# Test results as given in patent US7579152B2, “SENP1 as a marker of cancer development and target for cancer therapy” (Board of Regents, the University of Texas System, priority 2004, dated 2009).
# Columns and labels:
# SENP1 [1] = assay: SENP1 mRNA levels by quantitative real-time PCR in LNCaP cells after androgen/cytokine treatment; assay type: cell-based, human; settings: for SENP1 expression enhanced (mRNA, QRT-PCR) / Increase in SENP1 levels: R1881 20 nM; for Increase in SENP1 levels: IL-6 25 ng/mL, or both; for SENP1 levels on cytokine treatment: 25 ng/mL, 24 or 48 hr
# Description: (§1) LNCaP, PC-3, and DU145 cells were maintained in RPMI 1640 media containing 10% fetal bovine serum and 1% penicillin/streptomycin. The RWPE2 were maintained in Keratinocyte-Serum Free medium supplemented with 5 ng/ml human recombinant EGF and 0.05 mg/ml bovine pituitary extract. For hormone/cytokine treatment, the maintenance media was replaced with phenol red-free RPMI 1640 media containing 10% charcoal-stripped bovine serum and 1% penicillin/streptomycin.
# (§2) Cells (LNCaP and/or PC-3) were prepared for RNA isolation using the RNA-Bee Reagent (Tel-Test Inc, Friendswood, Tex.) according to manufacture's instructions with stock samples diluted to the appropriate concentrations with the DEPC-treated water.
# (§3) The TaqMan Master Mix Reagents (Applied Biosystems, Branchburg, N.J.) were utilized for the quantitative real-time PCR (QRT-PCR) reaction. Primers for either SENP1 ([…]; forward: SEQ. ID. NO. 5: 5′-TTGGCCAGAGTGCAAATGG-3′ and reverse: SEQ. ID. NO. 6 5′-[…]-3′) or the housekeeping 18S rRNA were utilized. SENP1 RNA levels were calculated using the TaqMan ABI PRISM 7900 Sequence Detector System (PE Applied Biosystems).
# SENP1 [2] = assay: SENP1 mRNA levels by quantitative real-time PCR in PC-3 cells after androgen/cytokine treatment; assay type: cell-based; settings: 24 hr
# Description: as §1, §2, §3
# PSA = PSA ELISA assay, secreted PSA of LNCaP cells; assay type: cell-based, human; settings: for Increase in PSA levels as compared to control: LNCaP, R1881 20 nM, IL-6 25 ng/mL, or both, 24 hr
# Description: as §1
# (§4) PC-3 and LNCaP cells were grown in 24-well plates. Cells were transfected with the oligos (40 pmol/well) or siRNA plasmid (200 ng) for one (for PC-3) or three times within 12 hour intervals (for LNcaP) using lipfectamine 2000 (Invitrogen). PSA ELISA or Luciferase assays were used for analysis.
# For assessment of PSA, the PSA ELISA assay kit was purchased from MP Biomedicals (Orangeburg, N.Y.) and performed according to manufacturer's instruction. Using a microtiter plate reader, the ng/mL concentration of the cell samples was calculated from the standard curve.
# cyclin D1 promoter = assay: Cyclin D1 promoter CD1 (-1745/+134) luciferase reporter assay in PC-3 cells; assay type: cell-based; settings: TSA for 12 hrs at 24 hr after transfection
# Description: At 24 hr after transfection, cells were treated different dosage TSA as indicated for 12 hrs and then luciferase activity were determined. All luciferase activity was normalized to individually determined β-gal activity. […] After 48 hr of transfection, the Luciferase activity was measured. All luciferase activity was normalized to individually determined β-gal activity. […] All luciferase activity was normalized to individually determined β-gal activity.
# EGFP-SENP1 and EGFP-SENP1mutant (C603A) were prepared by standard cloning and PCR based mutagenesis. CD1 (−1745/+134), CD1 (−963/+134), CD1 (−66/+134), and, CD1 (−66/+134) mutant-driven luciferase plasmids were prepared by PCR cloning strategy (Albanese et al., 1995; Tetsu et al., 1999). […]
# To further confirm the role of SENP1 in cyclin D1 transcription, we performed a cyclin D1 promoter-driven luciferase reporter assay (FIG. 16A) as described by Cheng et al, 2004. CD1 (−1745/+134), which corresponded to the original fragment of cyclin D1 5′ sequence cloned from the PRAD1 breakpoint, was transfected into PC-3 cells and its response to SENP1 was measured.
# AR = assay: ARE-luciferase reporter assay of AR-dependent transcription with co-transfected SENP1; assay type: cell-based; settings: PC-3 cells, in the presence of bicalutamide
# Description: as §4
# Luciferase reporter gene assays were used to examine whether SENP1 could affect AR-dependent transcription. […] This effect was dependent on the presence of AR ligand, R1881. […] Even at very low levels of cotransfected DNA, SENP1 induced AR transactivation. […] As the antagonists of androgen can also bind to the AR, the inventors tested whether SENP1 could act on antagonist-bound AR. […] SENP1 and SENP1 mutant were expressed at similar levels (FIG. 9E) and SENP1 and SENP2 were also expressed similarly (FIG. 9F).
compound,measurement,setting,value
C[C@]1(O)CC[C@H]2[C@@H]3CCC4=CC(=O)CCC4=C3C=C[C@@]21C [R1881],SENP1 levels with increasing R1881 concentration,SENP1 [1]; 24 hr,increasing R1881 concentration elevates SENP1 levels
same,"SENP1 expression enhanced (mRNA, QRT-PCR)",SENP1 [1]; 24 hr,5 fold
same,"SENP1 expression enhanced (mRNA, QRT-PCR)",SENP1 [1]; 48 hr,7 fold
same,Increase in SENP1 levels,SENP1 [1]; 24 hr,~5 fold
same,SENP1 expression on R1881 treatment,SENP1 [2]; R1881 30 nM,unaltered
same,Concentration of secreted PSA protein in the cultural medium,"PSA; LNCaP cells, R1881",increased
same,Increase in PSA levels as compared to control,PSA,5.6 fold
CC(/C=C/C(=O)NO)=C\[C@@H](C)C(=O)c1ccc(N(C)C)cc1 [TSA],SENP1 induction of cyclin D1 promoter activity,cyclin D1 promoter,decreased by TSA in a dose-dependent manner
CC(O)(CS(=O)(=O)c1ccc(F)cc1)C(=O)Nc1ccc(C#N)c(C(F)(F)F)c1 (centres unmarked) [bicalutamide],Effect of SENP1 on AR-dependent transcription with antagonist-bound AR,AR,no effect
IL-6: cytokine that promotes activation of AR-dependent transcription via MAPK and JAK/STAT pathways,SENP1 levels on cytokine treatment,SENP1 [1],enhanced
same,Increase in SENP1 levels,SENP1 [1]; 24 hr,~5 fold
same,SENP1 levels on cytokine treatment,SENP1 [2]; IL-6 25 ng/mL,unchanged
same,Increase in PSA levels as compared to control,PSA,2.2 fold
TNF-α,SENP1 levels on cytokine treatment,SENP1 [1],not
